# Article PMC6479099, “Aminoguanidines: New leads for treatment of Giardia duodenalis infection” (International Journal for Parasitology: Drugs and Drug …, 2019)
# Key:
# [1] = system: Giardia trophozoites (BAH2c2); test: Proliferation of Giardia trophozoites (resazurin, 96 h); format: cell-based, Giardia duodenalis; conditions: BAH2c2, 1000 trophozoites per well, read-out: IC50prol, Assemblage A (50% inhibition in the proliferation assay)
# Description: The effect of the compounds on the proliferation of Giardia trophozoites was determined following the protocol outlined above, with the following modifications. The number of trophozoites was decreased to 1000 per well and the cells were incubated in the presence of each compound for 96 h at 37 °C.
# The IC50 of each compound was determined using a resazurin reduction assay, which measures the metabolic activity of cells, using the log (inhibitor) vs. normalised response – variable slope function in Graphpad Prism. The compounds were tested against an assemblage A (BAH2c2, 24 h) and an assemblage B (BAH12, 24 h) isolate (Table 1). […] The effect of the compounds on the proliferation of Giardia trophozoites (BAH2c2) was also determined.
# [2] = system: bacteria; test: Off-target antibacterial effects; format: cell-based
compound,measurement,setting,value
"N=C(N/N=C/c1ccc(Cl)cc1)N/N=C/c1ccc(Cl)cc1 [Robenidine, robenidine]",IC50,[1],1200 ± 700 nM
same,Off-target antibacterial effects,[2],off-target antibacterial effects
